This is an account of results in patent US7989438B2, “Therapeutic compounds” (Istituto di Ricerche di Biologia Molecolare P. Angeletti SpA, priority 2007, dated 2011).

Like-named read-outs stand apart in the source and are kept apart here. Some results are limits rather than exact numbers.

The test system of this test is HCV subgenomic replication. The test can be described thus: Cell based HCV replication assay (subgenomic replicon in Huh-7 cells, NS3 Cell-ELISA). To be noted: activity ranges. The text has this:
Cell clones that stably maintain subgenomic HCV replicon were obtained by transfecting Huh-7 cells with an RNA replicon identical to I377neo/NS3-3′/wt described by Lohmann et al. (1999) (EMBL-genbank No. AJ242652), followed by selection with neomycin sulfate (G418). Viral replication was monitored by measuring the expression of the NS3 protein by an ELISA assay performed directly on cells grown in 96 wells microtiter plates (Cell-ELISA) using the anti-NS3 monoclonal antibody 10E5/24 (as described in published International application WO 02/59321). Cells were seeded into 96 well plates at a density of 10^4 cells per well in a final volume of 0.1 ml of DMEM/10% FCS. Two hours after plating, 50 μl of DMEM/10% FCS containing a 3× concentration of inhibitor were added, cells were incubated for 96 hours and then fixed for 10 minutes with ice-cold isopropanol. Each condition was tested in duplicate and average absorbance values were used for calculations. The cells were washed twice with PBS, blocked with 5% non-fat dry milk in PBS+0.1% Triton X100+0.02% SDS (PBSTS) and then incubated o/n at 4° C. with the 10E5/24 mab diluted in Milk/PBSTS. After washing 5 times with PBSTS, the cells were incubated for 3 hours at room temperature with Fc specific anti-mouse IgG conjugated to alkaline phosphatase (Sigma), diluted in Milk/PBSTS. After washing again as above, the reaction was developed with p-Nitrophenyl phosphate disodium substrate (Sigma) and the absorbance at 405/620 nm read at intervals. For calculations, we used data sets where samples incubated without inhibitors had absorbance values comprised between 1 and 1.5. The inhibitor concentration that reduced by 50% the expression of NS3 (IC50) was calculated by fitting the data to the Hill equation, Fraction inhibition=1−(Ai−b)/(A0−b)=[I]^n/([I]^n+[…]) where: • Ai=absorbance value of HBI10 cells supplemented with the indicated inhibitor concentration. • A0=absorbance value of HBI10 cells incubated without inhibitor. • b=absorbance value of Huh-7 cells plated at the same density in the same microtiter plates and incubated without inhibitor. • n=Hill coefficient.
For orientation: Replicon systems follow genome replication, usually without infectious particles.

[1] abbreviates: Table 2, various macrocycles, read-out: IC50* (nM), Inhibition of HCV subgenomic replication.
[2] abbreviates: Table 5, various macrocycles, read-out: IC50* (nM), Inhibition of HCV subgenomic replication.
Setting [3] is: Table A, Huh-7 replicon cells, 96 hours, read-out: IC50 (nM), Inhibition of HCV subgenomic replication.
Setting [4] is: Table 4, various macrocycles, read-out: IC50* (nM), Inhibition of HCV subgenomic replication.

As a reminder, the IC50 is the midpoint of a concentration-inhibition curve. For the compound `CN(C)CCN1CCN(C)C2COc3ccccc3-c3c(C4CCCCC4)c4ccc(cc4n3C2)C(=O)NS(=O)(=O)N(C)CC1` [Example 220, (7R)-14-cyclohexyl-21-[2-(dimethylamino)ethyl]-18,24-dimethyl-7,8-dihydro-6H-7,11-(epiminoethanoiminoethanoiminothioiminomethano)-indolo[1,2-e][1,5]benzoxazocin-15-one 17,17-dioxide], under setting [1], the IC50 was below 25 nM.
As to `CN1CCCN(CCN2CCCC2)S(=O)(=O)NC(=O)c2ccc3c(C4CCCCC4)c4n(c3c2)CC(CC1)COc1ccccc1-4` (single isomer, unassigned) [Example 505, (7R) or (7S)-14-cyclohexyl-22-methyl-18-(2-pyrrolidin-1-ylethyl)-7,8-dihydro-6H-7,11-(ethanoiminopropanoiminothioiminomethano)indolo[1,2-e][1,5]benzoxazocin-15-one 17,17-dioxide], under setting [2], the IC50 is 25 to 150 nM.
Regarding `COc1ccc2c(c1)OC[C@@H]1CCN(C)C3CCN(CC3)S(=O)(=O)NC(=O)c3ccc4c(C5CCCCC5)c-2n(c4c3)C1` [Example 523, (20R)-30-cyclohexyl-15-methoxy-23-methyl-18-oxa-2-thia-1,3,10,23-tetraazahexacyclo[22.2.2.1^5,9.1^8,11.1^10,20.0^12,17]hentriaconta-5(31),6,8,11(30),12,14,16-heptaen-4-one 2,2-dioxide], for the setting “Hepatitis C virus, Huh-7, Table 5, various macrocycles, read-out: IC50* (nM), Inhibition of HCV subgenomic replication”, the IC50 is below 25 nM.
As for `CN1CCN(C)C2COc3ccccc3-c3c(C4CCCCC4)c4ccc(cc4n3C2)C(=O)NS(=O)(=O)N(C)C(C)(C)C1` [Compound A24, (7R)-14-cyclohexyl-18,19,19,21,24-pentamethyl-7,8-dihydro-6H-7,11-(epiminoethanoiminoethanoiminothioiminomethano)indolo[1,2-e][1,5]benzoxazocin-15-one 17,17-dioxide], the IC50 under setting [3] was 25 to 150 nM.
As to `Cc1cccc2c1OCC1Cn3c-2c(C2CCCCC2)c2ccc(cc23)C(=O)NS(=O)(=O)N(C)CCN(Cc2cnn(C)c2)CCN1C` [Example 517, (7R)-14-cyclohexyl-4,18,24-trimethyl-21-[(1-methyl-1H-pyrazol-4-yl)methyl]-7,8-dihydro-6H-7,11-(epiminoethanoiminoethanoiminothioiminomethano)-indolo[1,2-e][1,5]benzoxazocin-15-one 17,17-dioxide], the IC50 under setting [2] was below 25 nM.
Regarding `CN1CCN(C)C2COc3ccccc3-c3c(C4CCCCC4F)c4ccc(cc4n3C2)C(=O)NS(=O)(=O)N(C)CC1` (single isomer, unassigned) [Example 413, (7R)-14-[(1R,2S) or (1S,2R)-2-fluorocyclohexyl]-18,21,24-trimethyl-7,8-dihydro-6H-7,11-(epiminoethanoiminoethanoiminothioiminomethano)-indolo[1,2-e][1,5]benzoxazocin-15-one 17,17-dioxide], the IC50 under setting [4] is below 25 nM.
As to `CCN1CCN(C)C2COc3ccc(F)cc3-c3c(C4CCCCC4)c4ccc(cc4n3C2)C(=O)NS(=O)(=O)N(C)CC1` [Example 205, (7R)-14-cyclohexyl-21-ethyl-2-fluoro-18,24-dimethyl-7,8-dihydro-6H-7,11-(epiminoethanoiminoethanoiminothioiminomethano)-indolo[1,2-e][1,5]benzoxazocin-15-one 17,17-dioxide], the IC50 under setting [1] was below 25 nM.
Turning to `CCN1CCN(C)C2COc3cc(OC)ccc3-c3c(C4CCCCC4)c4ccc(cc4n3C2)C(=O)NS(=O)(=O)N(C)CC1` [Example 210, (7R)-14-cyclohexyl-21-ethyl-3-methoxy-18,24-dimethyl-7,8-dihydro-6H-7,11-(epiminoethanoiminoethanoiminothioiminomethano)-indolo[1,2-e][1,5]benzoxazocin-15-one 17,17-dioxide], the concentration for half-maximal inhibition (IC50) under setting [1] was below 25 nM.
For the compound `CCN1CCN(C)C2COc3ccccc3-c3c(C4CCCCC4)c4ccc(cc4n3C2)C(=O)NS(=O)(=O)N(CCO)CC1` [Example 106, (7R)-14-cyclohexyl-21-ethyl-18-(2-hydroxyethyl)-24-methyl-7,8-dihydro-6H-7,11-(epiminoethanoiminoethanoiminothioiminomethano)-indolo[1,2-e][1,5]benzoxazocin-15-one 17,17-dioxide], the half-inhibitory concentration (IC50) (Table 1, 16 membered macrocycles, read-out: IC50* (nM), Inhibition of HCV subgenomic replication) is below 25 nM.
On to `CCN1CCN(C)[C@H]2COc3c(C)cccc3-c3c(C4CCCCC4)c4ccc(cc4n3C2)C(=O)NS(=O)(=O)N(C)CC1` [Compound A19, (7R)-14-cyclohexyl-21-ethyl-4,18,24-trimethyl-7,8-dihydro-6H-7,11-(epiminoethanoiminoethanoiminothioiminomethano)indolo[1,2-e][1,5]benzoxazocin-15-one 17,17-dioxide], for which, under setting [3], the half-maximal inhibitory concentration (IC50) was below 25 nM.
`CN1CCN(C)C2COc3c(OCCN4CCCC4)cccc3-c3c(C4CCCCC4)c4ccc(cc4n3C2)C(=O)NS(=O)(=O)N(C)CC1` [Compound A32, (7R)-14-cyclohexyl-18,21,24-trimethyl-4-(2-pyrrolidin-1-ylethoxy)-7,8-dihydro-6H-7,11-(epiminoethanoiminoethanoiminothioiminomethano)indolo[1,2-e][1,5]benzoxazocin-15-one 17,17-dioxide]: the IC50 under setting [3] was below 25 nM.
As for `CN1[C@H]2CCN(CCN(C)S(=O)(=O)NC(=O)c3ccc4c(C5CCCCC5)c5n(c4c3)C[C@@H]1COc1ccccc1-5)C2` [Compound A21, (16S,18R)-29-cyclohexyl-10,17-dimethyl-20-oxa-9-thia-1,8,10,13,17-pentaazahexacyclo[16.9.1.1^2,6.1^3,27.1^13,16.0^21,26]hentriaconta-2(31),3,5,21,23,25,27(29)-heptaen-7-one 9,9-dioxide], the 50% inhibitory concentration (IC50) (Hepatitis C virus, Table A, Huh-7 replicon cells, 96 hours, read-out: IC50 (nM), Inhibition of HCV subgenomic replication) was below 25 nM.
For the compound `CN1CCN2CCC(CC2)N(C)S(=O)(=O)NC(=O)c2ccc3c(C4CCCCC4)c4n(c3c2)C[C@@H]1COc1ccccc1-4` [Example 303, (5R)-31-cyclohexyl-4,24-dimethyl-7-oxa-23-thia-1,4,15,22,24-pentaazahexacyclo[23.2.2.1^5,15.1^14,17.1^16,20.0^8,13]dotriaconta-8,10,12,14(31),16(30),17,19-heptaen-21-one 23,23-dioxide], the IC50 (Hepatitis C virus, Huh-7, Table 3, various macrocycles, read-out: IC50* (nM), Inhibition of HCV subgenomic replication) is below 25 nM.
For `CCN1CCN(C)C2COc3cc(F)ccc3-c3c(C4CCCCC4)c4ccc(cc4n3C2)C(=O)NS(=O)(=O)N(C)CC1` [Example 203, (7R)-14-cyclohexyl-21-ethyl-3-fluoro-18,24-dimethyl-7,8-dihydro-6H-7,11-(epiminoethanoiminoethanoiminothioiminomethano)-indolo[1,2-e][1,5]benzoxazocin-15-one 17,17-dioxide], under setting [1], the IC50 is below 25 nM.
As to `CN1CCN(C)[C@H]2COc3c(OCc4ccccc4)cccc3-c3c(C4CCCCC4)c4ccc(cc4n3C2)C(=O)NS(=O)(=O)N(C)CC1` [Example 411, (7R)-4-(benzyloxy)-14-cyclohexyl-18,21,24-trimethyl-7,8-dihydro-6H-7,11-(epiminoethanoiminoethanoiminothioiminomethano)-indolo[1,2-e][1,5]benzoxazocin-15-one 17,17-dioxide], the IC50 under setting [4] was 25 to 150 nM.
As for `CCN1CCN(C)C2COc3c(OC)cccc3-c3c(C4CCCCC4)c4ccc(cc4n3C2)C(=O)NS(=O)(=O)N(C)CC1` [Compound A28, (7R)-14-cyclohexyl-21-ethyl-4-methoxy-18,24-dimethyl-7,8-dihydro-6H-7,11-(epiminoethanoiminoethanoiminothioiminomethano)indolo[1,2-e][1,5]benzoxazocin-15-one 17,17-dioxide], under setting [3], the IC50 is below 25 nM.
As to `CN1CCCC2COc3ccccc3-c3c(C4CCCCC4F)c4ccc(cc4n3C2)C(=O)NS(=O)(=O)N(C)CC1` (single isomer, unassigned) [Compound A40, (7R)-14-[(1R,2S) or (1S,2R)-2-fluorocyclohexyl]-18,21-dimethyl-7,8-dihydro-6H-7,11-(propanoiminoethanoiminothioiminomethano)indolo[1,2-e][1,5]benzoxazocin-15-one 17,17-dioxide], under setting [3], the IC50 was below 25 nM.
On to `CN1CCN(C)C2COc3ccc(F)cc3-c3c(C4CCCCC4)c4ccc(cc4n3C2)C(=O)NS(=O)(=O)N(C)CC1` [Example 202, (7R)-14-cyclohexyl-2-fluoro-18,21,24-trimethyl-7,8-dihydro-6H-7,11-(epiminoethanoiminoethanoiminothioiminomethano)-indolo[1,2-e][1,5]benzoxazocin-15-one 17,17-dioxide], for which, under setting [1], the IC50 is below 25 nM.
